Common to all, as to assay type: in vivo, human
The nature of data set [1]: Plasma losmapimod concentrations (PK), Phase 2b RCT. The settings on record: 15 mg orally BID. The method, then:
Blood samples for PK assessment (plasma losmapimod concentrations) were collected at D1, Wk4, Wk16, and Wk36 at the following time points: immediately pre-dose and 4 hours (±30 minutes) after administration of the study dose (approximate Cmax). PK samples were also taken, when feasible, after dosing during the Wk12, Wk24, and Wk48 visits, preferably ≥1 hour after dosing.
Plasma and muscle losmapimod concentrations were measured by 2 validated bioanalytical high-performance liquid chromatography methods by PPD, USA (PPD 2019).

Data set [2] concerns DUX4-regulated gene transcripts. The data set can be described thus: DUX4-regulated transcript analysis by RT-qPCR in muscle biopsies (primary endpoint). The settings on record: log 2 scale. The method, then:
All efficacy analyses were performed using the full analysis set (FAS), according to the randomized treatment group. The primary endpoint, change from baseline in DUX4 activity (DUX4 Score 1), was analyzed using the analysis of covariance approach, with treatment group and FSHD repeat number category (1 to 3 repeats versus 4 to 9 repeats) as fixed effects, and baseline DUX4 Score 1 as a covariate. Multiplicity adjustment was not performed, as the primary endpoint was not met.
Muscle needle biopsies were performed using the Bergstrom needle or fine needle at D1 and Wk16, or Wk36 if the muscle biopsy could not be performed at Wk16. The choice of the muscle(s) to be biopsied was determined by the investigator, informed by MRI taken during screening. […] The bilateral vastus lateralis, vastus medialis, lateral gastrocnemius, medial gastrocnemius, and tibialis anterior were evaluated for eligibility by MRI using a central reader. […]
The muscle tissue collected at each muscle needle biopsy (D1 and Wk16 or Wk36) was analyzed for DUX4 activity using a molecular panel of DUX4-regulated gene transcripts (CCNA1, KHDC1L, MBD312, PRAMEF6, SLC34A2 and ZSCAN4, with TBP, HMBS, CDKN1B as reference genes). Raw Cycle Thresholds (Cts) from quantitative polymerase chain reaction (qPCR) were determined for DUX4 regulated genes using a validated assay (Fluidigm). […]

A further data set relates to subjects with FSHD. The data set can be described thus: Reachable workspace (RWS) relative surface area, RCT. The method, then:
Continuous secondary and exploratory efficacy endpoints with 2 or more postbaseline follow-ups were analyzed using a mixed-effects model for repeated measures (MMRM), with change from baseline as the dependent variable, and treatment group, visit, treatment group-by-visit interaction, and FSHD repeat number category as fixed effects, and baseline value as a covariate. An unstructured covariance matrix was used to model the correlations among repeated measurements within each subject. The Kenward-Roger approximation was used to estimate denominator degrees of freedom. The RWS RSA score was also analyzed using a linear mixed-effects model, with treatment group as a fixed effect, and intercept, time and treatment group-by-time interaction as random effects, and with adjustment for FSHD repeat number category and region (USA, Canada, and EU). An unstructured covariance matrix was used. The RWS was performed at all visits, except for Week 16. It uses a single, 3D sensor-based system (Microsoft […]) that can unobtrusively detect subjects' RWS and reflects individual global upper extremity (UE) function, including shoulder and proximal arm. RWS has high reliability, repeatability, face validity, feasibility, sensitivity to change, and promise as a clinical outcome assessment (COA) for FSHD and other neuromuscular disorders. During the evaluation, patients were seated in front of the Microsoft […] sensor and underwent a standardized UE movement protocol while looking at a TV monitor. The evaluation was performed with and without 500 g weights two times per visit. All sites were provided and trained with the same standardized software and hardware by the sponsor. A central reader was responsible for training, quality control, data analysis, and standardization of the RWS across all sites in the study.

The subject of another data set is subjects with FSHD1. The experiment in a line: Muscle ultrasound echogenicity, open-label study in FSHD1. On the procedure: Fourteen subjects age 18 to 65 years with genetically confirmed FSHD1, clinical severity score of 2 to 4 (range 0-5) and MRI-eligible skeletal muscles for needle biopsy received open-label 15 mg twice daily losmapimod for 52 weeks with the primary objective of safety. Assessments included safety, MRI, muscle ultrasound (US), clinical outcomes, and PROs. US was performed on 7 muscles bilaterally using a standardized protocol. US echointensity was expressed as a z-score relative to matched healthy controls, with abnormal being defined as >2.

[3] abbreviates: open-label 15 mg twice daily, 52 weeks.

Structures are written as SMILES.

As to `Cc1c(F)cc(C(=O)NC2CC2)cc1-c1ccc(C(=O)NCC(C)(C)C)cn1` [losmapimod, 6-(5-cyclopropylcarbamoyl-3-fluoro-2-methyl-phenyl)-N-(2,2-dimethylpropyl-)-nicotinamide], the “Plasma concentrations of losmapimod pre-dose” value in data set [1] (pre-dose) is 25.2 to 34.4 ng/mL. In addition, the Cmax at 4 h in data set [1] (human, plasma, po, 4 h post-dose, read-out: Plasma concentrations of losmapimod 4 h post-dose (approximate Cmax)) lay within 66.4 to 91.8 ng/mL. Further, the “Change in DUX4 activity, difference losmapimod vs placebo” value in data set [2] (95% CI −1.04, 1.89, p=0.56) is given as 0.43. In addition, the “Change from baseline in DUX4 activity” value in data set [2] (combined Wk16 or Wk36 muscle biopsies) is listed as 0.83. In the data set on subjects with FSHD (0-1.25 scale), the “RSA change, dominant arm” value is recorded as 0.019 and the “RSA change, non-dominant arm” value is listed as 0.021. In addition, the “RSA difference vs placebo, non-dominant arm” value with subjects with FSHD (0-1.25 scale, 95% CI 0.0007, 0.09, p<0.05) was found to be 0.045. In the data set with subjects with FSHD (0-1.25 scale, 95% CI 0.017, 0.118, p=0.01), the “RSA difference vs placebo, dominant arm” value amounted to 0.067. For the same compound, the “Annualized rate of change in total RSA, non-dominant, annual percent change” value in the data set with subjects with FSHD (weighted assessment, p=0.01) was determined as 4.88%. The “Annualized rate of change in total RSA, dominant, annual percent change” value in the data set with subjects with FSHD (weighted assessment, p=0.07) is listed as 0.28%. In addition, in the data set with subjects with FSHD1 (setting [3]), the “Mean (SD) change from baseline in echogenicity of all muscles” value was -0.17 (0.9) z-score; the “Mean (SD) change from baseline in echogenicity, lower extremities” value was −0.13 (1.0) z-score; the “Mean (SD) change from baseline in echogenicity, upper extremity muscles” value is −0.32 (0.9) z-score. In addition, the “Distribution of echogenicity z-scores of muscles at baseline versus the last visit” value with subjects with FSHD1 (z-score classes <2, 2-4, 4-6, >6) is reported as “stayed the same or decreased”.

The values above are taken from patent US20240342148A1, “METHODS OF TREATING FACIOSCAPULOHUMERAL MUSCULAR DYSTROPHY WITH LOSMAPIMOD” (Fulcrum Therapeutics, Inc., priority 2021, published 2024).
